The test addresses T1, STING (Homo sapiens, UniProt Q86WV6, G230A/H232R/R293Q/R71H).
T1 construct: host or cells: THP1-Dual KO-IFNAR2 cells
Put plainly: STING reporter assay: luciferase reporter activity in THP1-Dual KO-IFNAR2 cells stimulated with 2′3′cGAMP. It is filed as cell-based. Particulars: 15 μM 2′3′cGAMP, 24h, read-out: hSTING EC50. Summed up:
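THP1-Dual KO-IFNAR2 cells (2×10E6 cells/mL) were exposed to compounds at 0.0017-100 μM, then stimulated with 2′3′cGAMP (15 μM final) transfected via Lipofectamine 2000. After 24h at 37° C., secreted luciferase in supernatant was read by QUANTI-Luc luminescence; EC50 derived from concentration-response.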
(Reporter assays use an easily measured gene product as a stand-in for the process of interest.)

The structures appear in SMILES notation.

T1 sequence (Q86WV6 whole entry R71H/G230A/H232R/R293Q): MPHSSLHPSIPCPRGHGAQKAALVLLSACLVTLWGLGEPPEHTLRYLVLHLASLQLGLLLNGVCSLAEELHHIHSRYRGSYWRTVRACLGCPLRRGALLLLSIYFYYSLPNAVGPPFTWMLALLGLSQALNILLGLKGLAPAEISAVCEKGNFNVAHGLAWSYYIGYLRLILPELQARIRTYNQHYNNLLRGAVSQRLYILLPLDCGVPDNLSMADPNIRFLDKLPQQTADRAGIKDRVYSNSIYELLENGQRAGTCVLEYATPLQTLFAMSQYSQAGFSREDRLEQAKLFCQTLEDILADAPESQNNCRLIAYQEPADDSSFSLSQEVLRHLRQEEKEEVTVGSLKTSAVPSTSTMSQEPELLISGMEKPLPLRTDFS

What is called EC50 is the concentration needed to bring the measured effect to its halfway point. On to `CC(C)(CO)C(=O)Nc1c[nH]c2ccc(-c3cnn(-c4ccc(C(F)(F)F)cc4)c3)cc12` [Compound 201, 3-hydroxy-2,2-dimethyl-N-(5-(1-(4-(trifluoromethyl)phenyl)-1H-pyrazol-4-yl)-1H-indol-3-yl)propanamide], for which the EC50 lay in the range of 1000 to 5000 nM. Turning to `O=C(Nc1c[nH]c2ccc(-c3cnn(-c4ccc(C(F)(F)F)cc4)c3)cc12)C1(O)CCC1` [Compound 202, 1-hydroxy-N-(5-(1-(4-(trifluoromethyl)phenyl)-1H-pyrazol-4-yl)-1H-indol-3-yl)cyclobutane-1-carboxamide], the EC50 was in the range of 200 to 1000 nM. As for `CC1(C(=O)Nc2c[nH]c3ccc(-c4cnn(-c5ccc(C(F)(F)F)cc5)c4)cc23)CCCO1` (stereo not shown) [Compound 203, 2-methyl-N-(5-(1-(4-(trifluoromethyl)phenyl)-1H-pyrazol-4-yl)-1H-indol-3-yl)tetrahydrofuran-2-carboxamide], the EC50 was in the range of 5000 to 100000 nM. As to `CC(C)[C@H](O)C(=O)Nc1c[nH]c2ccc(-c3cnn(-c4ccc(C(F)(F)F)cc4)c3)cc12` [Compound 204, (S)-2-hydroxy-3-methyl-N-(5-(1-(4-(trifluoromethyl)phenyl)-1H-pyrazol-4-yl)-1H-indol-3-yl)butanamide], the EC50 lay within 1000 to 5000 nM.

As to `CN1CC(C(=O)Nc2c[nH]c3ccc(-c4cnn(-c5ccc(C(F)(F)F)cc5)c4)cc23)C1=O` (stereo not shown) [Compound 205, 1-methyl-2-oxo-N-(5-(1-(4-(trifluoromethyl)phenyl)-1H-pyrazol-4-yl)-1H-indol-3-yl)azetidine-3-carboxamide], the EC50 fell in the range of 1000 to 5000 nM. Turning to `COCCOCCC(=O)Nc1c[nH]c2ccc(-c3cnn(-c4ccc(C(F)(F)F)cc4)c3)cc12` [Compound 206, 3-(2-methoxyethoxy)-N-(5-(1-(4-(trifluoromethyl)phenyl)-1H-pyrazol-4-yl)-1H-indol-3-yl)propanamide], the EC50 was in the range of 200 to 1000 nM.

As to `O=C(COCC(F)(F)F)Nc1c[nH]c2ccc(-c3cnn(-c4ccc(C(F)(F)F)cc4)c3)cc12` [Compound 207, 2-(2,2,2-trifluoroethoxy)-N-(5-(1-(4-(trifluoromethyl)phenyl)-1H-pyrazol-4-yl)-1H-indol-3-yl)acetamide], the EC50 was 200 to 1000 nM. With `CC(=O)NCC(C)(C)C(=O)Nc1c[nH]c2ccc(-c3cnn(-c4ccc(C(F)(F)F)cc4)c3)cc12` [Compound 208, 3-acetamido-2,2-dimethyl-N-(5-(1-(4-(trifluoromethyl)phenyl)-1H-pyrazol-4-yl)-1H-indol-3-yl)propanamide], the EC50 lay in the range of 1000 to 5000 nM. As for `CN1C(=O)CC[C@H]1C(=O)Nc1c[nH]c2ccc(-c3cnn(-c4ccc(C(F)(F)F)cc4)c3)cc12` [Compound 209, (S)-1-methyl-5-oxo-N-(5-(1-(4-(trifluoromethyl)phenyl)-1H-pyrazol-4-yl)-1H-indol-3-yl)pyrrolidine-2-carboxamide], the figure is 5000 to 100000 nM; as for `O=C1NCCC1C(=O)Nc1c[nH]c2ccc(-c3cnn(-c4ccc(C(F)(F)F)cc4)c3)cc12` (stereo not shown) [Compound 210, 2-oxo-N-(5-(1-(4-(trifluoromethyl)phenyl)-1H-pyrazol-4-yl)-1H-indol-3-yl)pyrrolidine-3-carboxamide], 5000 to 100000 nM. On to `CN1CCC(C(=O)Nc2c[nH]c3ccc(-c4cnn(-c5ccc(C(F)(F)F)cc5)c4)cc23)C1=O` (stereo not shown) [Compound 211, 1-methyl-2-oxo-N-(5-(1-(4-(trifluoromethyl)phenyl)-1H-pyrazol-4-yl)-1H-indol-3-yl)pyrrolidine-3-carboxamide], for which the EC50 fell in the range of 1000 to 5000 nM.

On to `O=C(COC(F)(F)F)Nc1c[nH]c2ccc(-c3cnn(-c4ccc(C(F)(F)F)cc4)c3)cc12` [Compound 212, 2-(trifluoromethoxy)-N-(5-(1-(4-(trifluoromethyl)phenyl)-1H-pyrazol-4-yl)-1H-indol-3-yl)acetamide], for which the EC50 is 200 to 1000 nM. For `O=C(Nc1c[nH]c2ccc(-c3cnn(-c4ccc(C(F)(F)F)cc4)c3)cc12)C1CS(=O)(=O)C1` [Compound 213, N-(5-(1-(4-(trifluoromethyl)phenyl)-1H-pyrazol-4-yl)-1H-indol-3-yl)thietane-3-carboxamide 1,1-dioxide], the EC50 lay in the range of 200 to 1000 nM. As to `O=C(CCC(F)(F)F)Nc1c[nH]c2ccc(-c3cnn(-c4ccc(C(F)(F)F)cc4)c3)cc12` [Compound 214, 4,4,4-trifluoro-N-(5-(1-(4-(trifluoromethyl)phenyl)-1H-pyrazol-4-yl)-1H-indol-3-yl)butanamide], the 50% effective concentration (EC50) was in the range of 200 to 1000 nM.

On to `CC(=O)NC(C)C(=O)Nc1c[nH]c2ccc(-c3cnn(-c4ccc(C(F)(F)F)cc4)c3)cc12` (stereo not shown) [Compound 215, 2-acetamido-N-(5-(1-(4-(trifluoromethyl)phenyl)-1H-pyrazol-4-yl)-1H-indol-3-yl)propanamide], for which the concentration for a half-maximal effect (EC50) was in the range of 1000 to 5000 nM. Then `CC(C)(C)C(=O)Nc1c[nH]c2ccc(-c3cnn(-c4ccc(C(F)(F)F)cc4)c3)cc12` [Compound 216, N-(5-(1-(4-(trifluoromethyl)phenyl)-1H-pyrazol-4-yl)-1H-indol-3-yl)pivalamide], with 1000 to 5000 nM; and `COCCOCC(=O)Nc1c[nH]c2ccc(-c3cnn(-c4ccc(C(F)(F)F)cc4)c3)cc12` [Compound 217, 2-(2-methoxyethoxy)-N-(5-(1-(4-(trifluoromethyl)phenyl)-1H-pyrazol-4-yl)-1H-indol-3-yl)acetamide], with 200 to 1000 nM. Then `CC(=O)NC(C(=O)Nc1c[nH]c2ccc(-c3cnn(-c4ccc(C(F)(F)F)cc4)c3)cc12)C(C)C` (stereo not shown) [Compound 218, 2-acetamido-3-methyl-N-(5-(1-(4-(trifluoromethyl)phenyl)-1H-pyrazol-4-yl)-1H-indol-3-yl)butanamide], with 1000 to 5000 nM. As for `O=C1CC(C(=O)Nc2c[nH]c3ccc(-c4cnn(-c5ccc(C(F)(F)F)cc5)c4)cc23)CCN1` (stereo not shown) [Compound 219, 2-oxo-N-(5-(1-(4-(trifluoromethyl)phenyl)-1H-pyrazol-4-yl)-1H-indol-3-yl)piperidine-4-carboxamide], the figure is 1000 to 5000 nM; as for `N#CC1(C(=O)Nc2c[nH]c3ccc(-c4cnn(-c5ccc(C(F)(F)F)cc5)c4)cc23)CCOCC1` [Compound 220, 4-cyano-N-(5-(1-(4-(trifluoromethyl)phenyl)-1H-pyrazol-4-yl)-1H-indol-3-yl)tetrahydro-2H-pyran-4-carboxamide], 5000 to 100000 nM; as for `O=C1CCC[C@@H](C(=O)Nc2c[nH]c3ccc(-c4cnn(-c5ccc(C(F)(F)F)cc5)c4)cc23)N1` [Compound 221, (S)-6-oxo-N-(5-(1-(4-(trifluoromethyl)phenyl)-1H-pyrazol-4-yl)-1H-indol-3-yl)piperidine-2-carboxamide], 1000 to 5000 nM.

As to `CC1(C(=O)Nc2c[nH]c3ccc(-c4cnn(-c5ccc(C(F)(F)F)cc5)c4)cc23)CCOCC1` [Compound 222, 4-methyl-N-(5-(1-(4-(trifluoromethyl)phenyl)-1H-pyrazol-4-yl)-1H-indol-3-yl)tetrahydro-2H-pyran-4-carboxamide], the EC50 was in the range of 1000 to 5000 nM. Then `CC(=O)N1CC(C(=O)Nc2c[nH]c3ccc(-c4cnn(-c5ccc(C(F)(F)F)cc5)c4)cc23)C1` [Compound 223, 1-acetyl-N-(5-(1-(4-(trifluoromethyl)phenyl)-1H-pyrazol-4-yl)-1H-indol-3-yl)azetidine-3-carboxamide], with 1000 to 5000 nM. `CN1CC(C(=O)Nc2c[nH]c3ccc(-c4cnn(-c5ccc(C(F)(F)F)cc5)c4)cc23)CCC1=O` (stereo not shown) [Compound 224, 1-methyl-6-oxo-N-(5-(1-(4-(trifluoromethyl)phenyl)-1H-pyrazol-4-yl)-1H-indol-3-yl)piperidine-3-carboxamide]: the EC50 is 1000 to 5000 nM. Then `CC(=O)N(C)CC(=O)Nc1c[nH]c2ccc(-c3cnn(-c4ccc(C(F)(F)F)cc4)c3)cc12` [Compound 225, N-methyl-N-(2-oxo-2-((5-(1-(4-(trifluoromethyl)phenyl)-1H-pyrazol-4-yl)-1H-indol-3-yl)amino)ethyl)acetamide], with 1000 to 5000 nM. For the compound `CC(=O)N1CCCC1C(=O)Nc1c[nH]c2ccc(-c3cnn(-c4ccc(C(F)(F)F)cc4)c3)cc12` (stereo not shown) [Compound 226, 1-acetyl-N-(5-(1-(4-(trifluoromethyl)phenyl)-1H-pyrazol-4-yl)-1H-indol-3-yl)pyrrolidine-2-carboxamide], the EC50 was 1000 to 5000 nM.

For `COC(C)C(=O)Nc1c[nH]c2ccc(-c3cnn(-c4ccc(C(F)(F)F)cc4)c3)cc12` (stereo not shown) [Compound 227, 2-methoxy-N-(5-(1-(4-(trifluoromethyl)phenyl)-1H-pyrazol-4-yl)-1H-indol-3-yl)propanamide], the EC50 was in the range of 1000 to 5000 nM. In the case of `CC(C)(C#N)C(=O)Nc1c[nH]c2ccc(-c3cnn(-c4ccc(C(F)(F)F)cc4)c3)cc12` [Compound 228, 2-cyano-2-methyl-N-(5-(1-(4-(trifluoromethyl)phenyl)-1H-pyrazol-4-yl)-1H-indol-3-yl)propanamide], the EC50 was in the range of 1000 to 5000 nM. Then `N#CC1(C(=O)Nc2c[nH]c3ccc(-c4cnn(-c5ccc(C(F)(F)F)cc5)c4)cc23)CCC1` [Compound 229, 1-cyano-N-(5-(1-(4-(trifluoromethyl)phenyl)-1H-pyrazol-4-yl)-1H-indol-3-yl)cyclobutane-1-carboxamide], with 1000 to 5000 nM; and `CC1=NOC(C)(C(=O)Nc2c[nH]c3ccc(-c4cnn(-c5ccc(C(F)(F)F)cc5)c4)cc23)C1` (stereo not shown) [Compound 230, 3,5-dimethyl-N-(5-(1-(4-(trifluoromethyl)phenyl)-1H-pyrazol-4-yl)-1H-indol-3-yl)-4,5-dihydroisoxazole-5-carboxamide], with 5000 to 100000 nM; and `CN1CCC(C(=O)Nc2c[nH]c3ccc(-c4cnn(-c5ccc(C(F)(F)F)cc5)c4)cc23)CC1=O` (stereo not shown) [Compound 231, 1-methyl-2-oxo-N-(5-(1-(4-(trifluoromethyl)phenyl)-1H-pyrazol-4-yl)-1H-indol-3-yl)piperidine-4-carboxamide], with 1000 to 5000 nM.

(Values after patent US20230365553A1, “COMPOUNDS AND COMPOSITIONS FOR TREATING CONDITIONS ASSOCIATED WITH STING ACTIVITY” (IFM Due, Inc., priority 2020, published 2023).)
